Structures are written as SMILES.

Consider 30 molecules from ChEMBL document CHEMBL1135039, “A novel synthesis of 2-arylpyrrolo[1,2-a]pyrimid-7-ones and their structure-activity relationships as potent GnRH receptor antagonists” (Bioorg Med Chem Lett, 2002).

The test has as its target T1, Gonadotropin-releasing hormone receptor (Homo sapiens, UniProt P30968).
T1 sequence (P30968 whole entry): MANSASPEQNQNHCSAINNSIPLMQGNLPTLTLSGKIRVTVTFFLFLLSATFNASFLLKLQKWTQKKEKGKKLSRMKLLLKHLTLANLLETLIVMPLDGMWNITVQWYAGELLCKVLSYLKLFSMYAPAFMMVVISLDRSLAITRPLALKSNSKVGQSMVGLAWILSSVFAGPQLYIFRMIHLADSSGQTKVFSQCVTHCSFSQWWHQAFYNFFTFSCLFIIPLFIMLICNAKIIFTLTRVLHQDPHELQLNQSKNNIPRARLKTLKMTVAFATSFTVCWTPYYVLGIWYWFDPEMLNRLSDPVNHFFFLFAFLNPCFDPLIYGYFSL
Briefly: Binding affinity to human gonadotropin-releasing hormone (hGnRH) receptor expressed in HEK293 cells using des-Gly10[125I-Tyr,5DLeu,6NMeLeu,7Pro9-NEt]GnRH radioligand. The format is cell-based.
In turn, `CCCC(=O)Nc1ccc(-c2cc3n(Cc4ccccc4F)cc(C(=O)NCCOC)c(=O)n3c2CN(C)CCc2ccccn2)cc1` yielded a Ki of 630 nM.
Turning to `CCCC(=O)Nc1ccc(-c2cc3n(Cc4ccccc4F)cc(C(=O)OC(CC)CC)c(=O)n3c2CN(C)CCN(CC)CC)cc1`, the inhibition constant (Ki) was found to be 5.8 nM.
In the case of `CCCCNC(=O)c1cn(Cc2ccccc2F)c2cc(-c3ccc(NC(=O)CCC)cc3)c(CN(C)CCc3ccccn3)n2c1=O`, the Ki came to 10 nM.
Turning to `CCCC(=O)Nc1ccc(-c2cc3n(Cc4ccccc4F)cc(C(=O)NC4CCCCC4)c(=O)n3c2CN(C)CCc2ccccn2)cc1`, the Ki stood at 32 nM.
Regarding `CCC(CC)OC(=O)c1cn(Cc2ccccc2F)c2cc(-c3ccc(OC)cc3)c(CN(C)Cc3ccccc3)n2c1=O`, the affinity, expressed as Ki, was 62 nM.
Turning to `CCCC(=O)Nc1ccc(-c2cc3n(Cc4ccccc4F)cc(C(=O)OC(CC)CC)c(=O)n3c2CN(C)C)cc1`, affinity was put at a Ki of 130 nM.
`CN(CCc1ccccn1)Cc1c(-c2ccc([N+](=O)[O-])cc2)cc2n(Cc3ccccc3F)cc(C3=NC(C)(C)CO3)c(=O)n12`: the affinity corresponds to a Ki of 270 nM.
For the molecule `CCOC(=O)c1cn(Cc2ccccc2F)c2cc(-c3ccc(NC(=O)C(C)C)cc3)c(CN(C)Cc3ccccc3)n2c1=O`, the Ki came out at 44 nM.
The molecule `CCCC(=O)Nc1ccc(-c2cc3n(Cc4ccccc4F)cc(C(=O)NCCCc4ccccc4)c(=O)n3c2CN(C)CCc2ccccn2)cc1` yielded a Ki of 1.1 nM.
`CCCC(=O)Nc1ccc(-c2cc3n(Cc4ccccc4F)cc(C(=O)NCCCc4ccccc4)c(=O)n3c2CN(C)Cc2ccccc2)cc1` had a Ki of 17 nM. Compared with the last molecule, the Ki is about 15-fold higher.
The molecule `CCC(CC)OC(=O)c1cn(Cc2ccccc2F)c2cc(-c3ccc(N)cc3)c(CN(C)Cc3ccccc3)n2c1=O` displayed a Ki of 100 nM.
In the case of `CCOC(=O)c1cn(Cc2ccccc2F)c2cc(-c3ccc(OC)cc3)c(CN(C)Cc3ccccc3)n2c1=O`, the Ki amounted to 400 nM.
On to `CCCC(=O)Nc1ccc(-c2cc3n(Cc4ccccc4F)cc(C(=O)OC(CC)CC)c(=O)n3c2CN(C)Cc2ccccc2)cc1`, for which the Ki worked out at 3.8 nM.
Then `CCC(CC)OC(=O)c1cn(Cc2ccccc2F)c2cc(-c3ccc(NC(C)=O)cc3)c(CN(C)Cc3ccccc3)n2c1=O`, with 4 nM.
The molecule `CCOC(=O)c1cn(Cc2ccccc2F)c2cc(-c3ccc(N)cc3)c(CN(C)Cc3ccccc3)n2c1=O` showed a Ki of 190 nM.
Molecule `CCCC(=O)Nc1ccc(-c2cc3n(Cc4ccccc4F)cc(C(=O)OCC)c(=O)n3c2CN(C)CCc2ccccn2)cc1` showed a Ki of 1.2 nM.
`CCCCNC(=O)c1cn(Cc2ccccc2F)c2cc(-c3ccc(NC(=O)CCC)cc3)c(CN(C)CCN(CC)CC)n2c1=O` registered a Ki of 440 nM. This Ki lies about 370-fold higher than the previous one.
The molecule `CCCC(=O)Nc1ccc(-c2cc3n(Cc4ccccc4F)cc(C(=O)OC(CC)CC)c(=O)n3c2CN(C)CCc2ccccc2)cc1` yielded a Ki of 2.1 nM.
Molecule `CCC(CC)OC(=O)c1cn(Cc2ccccc2F)c2cc(-c3ccc(NC(C)=O)cc3)c(CN(C)CCc3ccccn3)n2c1=O` came in with a Ki of 2.8 nM. The Ki values of the last two molecules are within 1.5-fold of each other.
Consider `CCOC(=O)c1cn(Cc2ccccc2F)c2cc(-c3ccc(OC)cc3)c(CN(C)CCc3ccccn3)n2c1=O`, for which the Ki came to 55 nM. This Ki lies about 20-fold higher than the previous one.
Regarding `CCCC(=O)Nc1ccc(-c2cc3n(Cc4ccccc4F)cc(C(=O)NC4CCCC4)c(=O)n3c2CN(C)CCc2ccccn2)cc1`, affinity was put at a Ki of 9.2 nM. This Ki is about 6-fold lower than that of the molecule before.
In turn, `CCOC(=O)c1cn(Cc2ccccc2F)c2cc(-c3ccc(NC(=O)C(C)C)cc3)c(CN(C)CCc3ccccn3)n2c1=O` showed a Ki of 14 nM.
In turn, `CCCC(=O)Nc1ccc(-c2cc3n(Cc4ccccc4F)cc(C(=O)OC(CC)CC)c(=O)n3c2CN(C)CCc2ccccn2)cc1` came in with a Ki of 2.7 nM. This Ki is about 5.2-fold lower than that of the molecule before.
Under `CCCCCCNC(=O)c1cn(Cc2ccccc2F)c2cc(-c3ccc(NC(=O)CCC)cc3)c(CN(C)CCc3ccccn3)n2c1=O` stands 3.3 nM; under `CCCC(=O)Nc1ccc(-c2cc3n(Cc4ccccc4F)cc(C(=O)NC(CC)CC)c(=O)n3c2CN(C)CCc2ccccn2)cc1`, 21 nM; under `CN(CCc1ccccn1)Cc1c(-c2ccc([N+](=O)[O-])cc2)cc2n(Cc3ccccc3F)cc(-c3nc(C(C)(C)C)co3)c(=O)n12`, 64 nM.
The molecule `CCC(CC)OC(=O)c1cn(Cc2ccccc2F)c2cc(-c3ccc(OC)cc3)c(CN(C)CCc3ccccn3)n2c1=O` registered a Ki of 14 nM. This Ki lies about 4.6-fold lower than the previous one.
On to `CCOC(=O)c1cn(Cc2ccccc2F)c2cc(-c3ccc([N+](=O)[O-])cc3)c(CN(C)Cc3ccccc3)n2c1=O`, for which affinity was put at a Ki of 450 nM.
In turn, `CCOC(=O)c1cn(Cc2ccccc2F)c2cc(-c3ccc(NC(C)=O)cc3)c(CN(C)Cc3ccccc3)n2c1=O` returned a Ki of 42 nM.
`CCCCNC(=O)c1cn(Cc2ccccc2F)c2cc(-c3ccc(NC(=O)CCC)cc3)c(CN(C)Cc3ccccc3)n2c1=O` gave a Ki of 154 nM.

For orientation: Ki means the dissociation constant of the complex between target and ligand, obtained from inhibition or displacement.
